In patent publication US11007167B2, “Methods of treating multiple sclerosis” (Biogen MA Inc., priority 2014, dated 2021):
Entries after “also recorded” stand apart in the source; their conditions may differ. Structures can show the parent of a compound that is named as a salt.

Experiments:
[1] = tested on: JCV; conditions: literature report; cited from earlier work
[2] = tested on: patients with RRMS; experiment: Annualized relapse rate / clinical efficacy in DEFINE and CONFIRM; format: in vivo, human; conditions: DMF 240 mg BID; for Rate ratio (95% CI) for adjusted ARR for DMF versus placebo: 2 years
Excerpt: FIGS. 4A-4B depict reduction in ARR at 2 years in DEFINE (FIG. 4A) and CONFIRM (FIG. 4B) in patients in the DMF BID group with lymphopenia (at least 1 ALC less than LLN) or without lymphopenia (all ALCs greater than or equal to LLN) compared with all patients in placebo group. ARR=annualized relapse rate; CI=confidence interval. ^aDMF is delayed-release DMF (also known as gastro-resistant DMF, and as TECFIDERA®). ^bBased on negative binomial regression, adjusted for study, baseline EDSS (≤2.0 vs >2.0), baseline age (<40 vs ≥40), region, and number of relapses in the 1 year prior to study entry.
(§1) The Phase 2b study, DEFINE, and CONFIRM were multicenter, randomized, double-blind, placebo-controlled, parallel-group clinical trials of DMF as monotherapy for RRMS.
(§2) DEFINE and CONFIRM were 2 years in duration. Patients were randomized equally to DMF 240 mg twice daily (BID), 240 mg TID, or matching placebo.

[3] = tested on: MS patients; experiment: Serious infections by worst post-baseline CTC grade (Phase 2b, DEFINE, CONFIRM, ENDORSE); format: in vivo, human
Excerpt: The Phase 2b study, […], and CONFIRM were multicenter, randomized, double-blind, placebo-controlled, parallel-group clinical trials of DMF as monotherapy for RRMS. ALCs were graded per Common Terminology Criteria for Adverse Events (CTCAE; Table 9).^9

[4] = tested on: patient with MS; experiment: Occurrence of progressive multifocal leukoencephalopathy (PML) in treated MS patients; conditions: prolonged lymphopenia
[5] = tested on: patients with RRMS; conditions: DEFINE Phase 3 study; after two years of treatment; cited from earlier work
[6] = tested on: MS patients; experiment: Absolute lymphocyte count (ALC) profiles in DMF-treated MS patients (Phase 2b, DEFINE, CONFIRM, ENDORSE); format: in vivo, human
Description: as §1
The Phase 2b study was 12 months in duration, including a 6-month placebo-controlled part (Part 1) and a 6-month uncontrolled safety extension part (Part 2). During Part 1, patients were randomized equally to DMF 120 mg once daily (QD), 120 mg three times daily (TID), 240 mg TID, or placebo.
as §2
ENDORSE is a multicenter, parallel-group, dose-blinded extension of DEFINE/CONFIRM with up to 8 additional years of follow-up.
In the Phase 2b study, blood was collected every 4 weeks.
In DEFINE and CONFIRM, blood was collected every 4 weeks for the first 3 months and every 12 weeks thereafter, and within 1 month after study withdrawal or study completion if not continuing in the extension study.
In ENDORSE, blood was collected at baseline and every 12 weeks thereafter
ALCs were graded per Common Terminology Criteria for Adverse Events (CTCAE; Table 9).^9
Data from DEFINE and CONFIRM after subjects switched to alternative MS treatment were excluded.
Data from the 6-month uncontrolled safety extension of the Phase 2b study were included.

[7] = tested on: healthy volunteer; experiment: Healthy volunteer study: aspirin prior to DMF dosing (flushing); format: in vivo, human; conditions: 325 mg non-enteric coated aspirin 30 minutes prior to DMF dosing
Description: In a specific embodiment, a NSAID (e.g., aspirin) is administered concurrently, before, and/or after administration of the fumarate (e.g., DMF). […] Some subjects who experience flushing with gastrointestinal side effects may reduce the dose to 120 mg DMF BID temporarily. Within a month, the effective dose of 240 mg DMF BID or 240 mg DMF TID should be resumed.

[8] = percentage of the number with worst post-baseline count in that grade
[9] = All ALCs ≥ 500/mm^3 within the first 1 year
[10] = All ALCs ≥ 500/mm^3 within the first 6 months
[11] = All ALCs ≥ 800/mm^3 within the first 1 year
[12] = All ALCs ≥ 800/mm^3 within the first 6 months
[13] = At least 1 ALC < 500/mm^3 (row r11) within the first 1 year
[14] = At least 1 ALC < 500/mm^3 (row r12) within the first 1 year
[15] = At least 1 ALC < 500/mm^3 (row r12) within the first 6 months

CCCCCCCCCCCCCCCCOCCCOP(=O)(O)CO[C@H](CO)Cn1ccc(N)nc1=O [CMX001, Hexadecyloxypropyl-Cidofovir]
Effect on JCV replication [1]: suppress JVC by inhibiting viral DNA replication

COC(=O)/C=C/C(=O)OC [DMF, dimethyl fumarate]
Rate ratio (95% CI) for adjusted ARR for DMF versus placebo ([2]; CONFIRM, patients with treatment-associated lymphopenia): 0.525 (0.365, 0.756)
Rate ratio (95% CI) for adjusted ARR for DMF versus placebo ([2]; CONFIRM, patients without lymphopenia): 0.599 (0.429, 0.835)
Rate ratio (95% CI) for adjusted ARR for DMF versus placebo ([2]; DEFINE, patients with treatment-associated lymphopenia): 0.424 (0.294, 0.611)
Rate ratio (95% CI) for adjusted ARR for DMF versus placebo ([2]; DEFINE, patients without lymphopenia): 0.509 (0.381, 0.681)
Reduction in ARR at 2 years versus placebo, patients with versus without lymphopenia ([2]; DEFINE and CONFIRM): not substantially different
Association of lymphopenia with risk of infections, serious infections, opportunistic infections ([3]; interim analysis of Phase 2b, DEFINE, CONFIRM, ENDORSE): not associated with an overall increased risk of infections or serious infections
Serious infections, worst post-baseline CTC grade 0, % [3, 8]: (3) %
Serious infections, worst post-baseline CTC grade 1, % [3, 8]: (5.5) %
Serious infections, worst post-baseline CTC grade 2, % [3, 8]: (4) %
Serious infections, worst post-baseline CTC grade 3 or 4, % [3, 8]: (3) %
Cases of PML ([4]; MS patient in clinical trial, severe): a case of PML
Lymphocyte counts of the patient who developed PML ([4]; 3.5 years duration): less than 0.5×10^9 /L
Clinical relapses, disability progression, lesion number and volume compared with placebo [5]: significantly reduced clinical relapses, accumulation of disability progression, and lesion number and volume
ALCs after discontinuation of treatment (following final dose) ([6]; 9 patients with ALCs < 500 cells/μL for at least 6 months who discontinued or completed the study): ALCs generally increased; also recorded: All 9 patients showed increases in ALCs; also recorded: evidence of ALC improvement
Patients who subsequently developed ALCs < 500/mm^3 persisting ≥ 6 months at any time, % [6, 9]: (0.7) %
Patients who subsequently developed ALCs < 500/mm^3 persisting ≥ 6 months at any time, n/N [6, 9]: 16/2409
Patients who subsequently developed ALCs < 500/mm^3 persisting ≥ 6 months at any time, % [6, 10]: (1.5) %
Patients who subsequently developed ALCs < 500/mm^3 persisting ≥ 6 months at any time, n/N [6, 10]: 37/2446
Patients who subsequently developed ALCs < 500/mm^3 persisting ≥ 6 months at any time, % [6, 11]: (0) %
Patients who subsequently developed ALCs < 500/mm^3 persisting ≥ 6 months at any time, n/N [6, 11]: 0/2050
Patients who subsequently developed ALCs < 500/mm^3 persisting ≥ 6 months at any time, % [6, 12]: (0.4) %
Patients who subsequently developed ALCs < 500/mm^3 persisting ≥ 6 months at any time, n/N [6, 12]: 9/2219
Patients who subsequently developed ALCs < 500/mm^3 persisting ≥ 6 months at any time, n/N ([6]; All ALCs ≥ LLN within the first 1 year of treatment): 0/1876
Patients who subsequently developed ALCs < 500/mm^3 persisting ≥ 6 months at any time, n/N ([6]; All ALCs ≥ LLN within the first 6 months of treatment): 3/2083
Patients who subsequently developed ALCs < 500/mm^3 persisting ≥ 6 months at any time, % [6, 13]: (17) %
Patients who subsequently developed ALCs < 500/mm^3 persisting ≥ 6 months at any time, n/N [6, 13]: 47/420
Patients who subsequently developed ALCs < 500/mm^3 persisting ≥ 6 months at any time, % ([6]; At least 1 ALC < 500/mm^3 (row r11) within the first 6 months): (10) %
Patients who subsequently developed ALCs < 500/mm^3 persisting ≥ 6 months at any time, % [6, 14]: (51) %
Patients who subsequently developed ALCs < 500/mm^3 persisting ≥ 6 months at any time, n/N [6, 14]: 31/61
Patients who subsequently developed ALCs < 500/mm^3 persisting ≥ 6 months at any time, % [6, 15]: (42) %
Patients who subsequently developed ALCs < 500/mm^3 persisting ≥ 6 months at any time, n/N [6, 15]: 10/24
Patients who subsequently developed ALCs < 500/mm^3 persisting ≥ 6 months at any time, n/N ([6]; At least 1 ALC < 500/mm^3 within the first 6 months): 38/251
Incidence of worst post-baseline ALC CTC grade 0, % ([6]; Total DMF, n = 2513): (61) %
Incidence of worst post-baseline ALC CTC grade 1, % ([6]; Total DMF, n = 2513): (9) %
Incidence of worst post-baseline ALC CTC grade 2, % ([6]; Total DMF, n = 2513): (21) %
Incidence of worst post-baseline ALC CTC grade 3 or 4, % ([6]; Total DMF, n = 2513): (7) %
Patients who experienced ALCs less than 500/mm^3 persisting for greater than or equal to 6 months, % ([6]; among patients treated for ≥ 6 months (N=2,099)): 2.2%
Patients in whom ALCs remained greater than or equal to LLN ([6]; during the first 6 months): 84%
Patients in whom ALCs remained greater than or equal to LLN ([6]; during the first year): 76%
Course of ALCs with continued therapy ([6]; patients with ALCs < 500/mm^3 persisting ≥ 6 months): generally remained less than 500/mm^3
Decrease of mean ALCs during the first year of treatment ([6]; then plateaued, remaining above LLN (910/mm^3) throughout the observation period): approximately 30%

OC(c1cc(C(F)(F)F)nc2c(C(F)(F)F)cccc12)C1CCCCN1 (centres unmarked) [Mefloquine]
Effect on JCV replication [1]: block JCV replication without significant toxicity

CC(=O)Oc1ccccc1C(=O)O [aspirin]
Occurrence and severity of flushing [7]: reduce the occurrence and severity of flushing
